Measurements as given in patent publication US20080131907A1, “ASSAYS FOR DETECTING NATIVE-STATE PROTEINS AND IDENTIFYING COMPOUNDS THAT MODULATE THE STABILITY OF NATIVE-STATE PROTEINS” (FoldRx Pharmaceuticals, Inc., priority 2006, published 2008).
Where “and” joins values, the source holds several entries; their conditions need not be identical. Identical values can stand only once.

Experiments:
tetrameric transthyretin [1] = molecular target: T1, tetrameric transthyretin (Homo sapiens, UniProt P02766); assay: Immuno-turbidimetric assay 2: plasma + compound, urea, no cross-linking (dilution or immediate detection); details: for Stabilization of transthyretin tetramer (in words): 7.2 μM, urea for 3 days, Table 2; for Stabilization of transthyretin tetramer (in words) / Beckman Normalized / Olympus Normalized: human plasma; for Beckman Normalized / Olympus Normalized: 7.2 μM compound, 4.8 M urea; for Beckman Normalized: Beckman reagent; for Olympus Normalized: Olympus reagent
Description: In this second assay, the cross-linking step is replaced with a step of terminating denaturation (caused by the urea treatment) by dilution of the sample. Briefly, a 1 ml sample of human plasma was combined with either 1 μl of a test compound (Cmp. 1: 2-(2,6-dichloro-phenyl)-benzoxazole-6-carboxylic acid or Cmp. 2: 2-(3,5-dichloro-phenyl)-benzoxazole-6-carboxylic acid; see Published U.S. Application No. 20040152140) solubilized in DMSO or a control solution of DMSO, and the samples were incubated for 15 minutes at room temperature prior to addition of urea. The final concentration of the test compounds was 7.2 μM in DMSO. A solution of urea was added such that the final concentration of urea in the sample was 4.8 M. A 1 mL aliquot was removed immediately (no incubation (no-inc)) for dilution (see below) and the remaining 1.5 mL mixture was incubated for 3 days at room temperature (3 day) (FIG. 3). Immediately (for the no-inc) or following the three day incubation (for the 3 day samples), the samples were diluted 1:5 (four volumes diluent were added per one volume equivalent of sample). Potassium chloride (KCl) and sodium phosphate (NaPO4) were also added to the samples at final concentrations of 50 mM and 25 mM, respectively.
2 was also monitored using immuno-turbidimetric assay 2 (Example 2). Plasma samples (a pool from 16 individual donors) containing 4.6 μM transthyretin were treated with 4.6 μm, or 9.2 μm Cmp. 2, or DMSO as a negative control, for 15 minutes at room temperature. Following the incubation, urea was added to the samples resulting in a final urea concentration of 3.2 M (see FIG. 7). Aliquots were removed immediately (day 0) and after incubation at room temperature for 8, 13, 24, 32, and 48 hours. Immediate detection of transthyretin using the Bayer ADVIA prealbumin kit was performed as described by the manufacturer. For each concentration of Cmp. 2, the assay-determined transthyretin concentration at 8, 13, 24, 32, and 48 hours was divided by the assay-determined initial concentration at day 0 to yield the percent of tetramer remaining (FIG. 7).

tetrameric transthyretin [2] = molecular target: T1, tetrameric transthyretin; assay: Immuno-turbidimetric assay 1: plasma + compound, 4.8 M urea, glutaraldehyde cross-linking, Olympus OSR6175 reagent; details: for Normalized (mg/dL) transthyretin tetramer concentration: 7.2 μM compound, 40 mM glutaraldehyde
Description: Next, the immuno-turbidity assay was evaluated in human plasma samples containing transthyretin and in the presence and absence of a test compound 2-(2,6-dichloro-phenyl)-benzoxazole-6-carboxylic acid (a transthyretin stabilizing compound, see Published U.S. Application No. 20040152140). A 1 mL plasma sample was incubated with 1 μL of 2-(2,6-Dichloro-phenyl)-benzoxazole-6-carboxylic acid (solubilized in dimethyl sulfoxide (DMSO), or a control solution containing only DMSO, for 15 minutes at room temperature. The final test concentration of 2-(2,6-dichloro-phenyl)-benzoxazole-6-carboxylic acid (Cmp. 1) was 7.2 μM. Experimental (with compound) or control (only DMSO) samples were then each combined with 1.5 mL of 8 M urea to a final urea concentration of 4.8 M. A 1 mL aliquot was removed immediately (no incubation (no-inc)) for cross-linking and the remaining 1.5 mL mixture was incubated for 3 days at room temperature (3 day). Immediately for the no-inc 1 mL aliquot or following the 3 day incubation for the 3 day samples, 1 mL of the samples was cross-linked by adding 16 L of 25% (2.5 M) glutaraldehyde in water to a final concentration of 40 mM. The mixtures were incubated for 4 minutes at room temperature. The cross-linking reaction was stopped by the addition of 54 μL of 1.85 M freshly prepared sodium borohydride in 0.1 N sodium hydroxide, followed by a 5 minute incubation at room temperature. For analysis, the OSR6175 reagent was added to sample per manufacturer's instructions, and the turbidity, as a measure of the difference between incident and transmitted light, was calculated per manufacturer instruction.
To test the effect of different dosages of 2-(3,5-dichloro-phenyl)-benzoxazole-6-carboxylic acid (Cmp. 2) on transthyretin stabilization, plasma samples (a pool from 20 individual donors) containing 4.3 M transthyretin were treated with 2.2 μM, 4.3 μm, or 8.6 μm Cmp. 2, or DMSO as a negative control, for 15 minutes at room temperature. Following the incubation, the urea denaturant was added to the samples resulting in a final urea concentration of 4.8 M (see FIG. 6). As above, aliquots were removed immediately (day 0) and after incubation at room temperature for 1, 2, and 3 days. Cross-linking (glutaraldehyde) and detection of transthyretin using the Olympus OSR6175 reagent were performed as described under Example 1. For each concentration of Cmp. […]
Since the concentration of transthyretin fluctuates from day to day in an individual subject and can vary between different subjects (e.g., different patients), the efficacy of Cmp. […] Samples were then subjected to denaturation and cross-linking, and stabilized tetrameric transthyretin was measured as described above in Examples 1 and 3.

tetrameric transthyretin [3] = molecular target: T1, tetrameric transthyretin; assay: Western blotting method (urea, cross-linking, SDS-PAGE, anti-transthyretin immunoblot) of plasma samples; assay type: biochemical; parameters: human plasma samples containing transthyretin; from tissue; host or cells: human plasma (single samples or pools of donors); details: 7.2 μM, 3 day urea treatment, FIG. 4B
Description: The position of transthyretin tetramer on the immunoblot is indicated at the left of the immunoblot, and the time point at which the samples were collected for assay (0 or 3 days) are indicated above the immunoblot.

[4] = molecular target: V30M transthyretin mutation, tetrameric transthyretin (Homo sapiens, UniProt P02766, V50M); assay: Immuno-turbidimetric assay 1 on pooled plasma from familial amyloid polyneuropathy patients; assay type: biochemical; details: urea 24, 31 or 36, or 48 hours; 22 mg/dL transthyretin; FIG. 9
Description: The Y-axis represents the percentage of the initial (“Fraction of initial”) transthyretin tetramer concentration remaining in each sample following treatment with urea.
The samples were then subjected to denaturation for 24, 31 or 36, or 48 hours and then cross-linked (as above).

Row | Compound | Stabilization of transthyretin tetramer (in words) (tetrameric transthyretin [1]) | Beckman Normalized (tetrameric transthyretin [1]; Day 0) [mg/dL] | Olympus Normalized (tetrameric transthyretin [1]; Day 0) | Beckman Normalized (tetrameric transthyretin [1]; Day 3) [mg/dL] | Olympus Normalized (tetrameric transthyretin [1]; Day 3) [mg/dL] | Stabilization of tetrameric transthyretin (in words) (tetrameric transthyretin [2]; 7.2 μM, three-day 4.8 M urea treatment, human plasma) | Normalized (mg/dL) transthyretin tetramer concentration (tetrameric transthyretin [2]; Day 0 (no incubation), 4.8 M urea, human plasma) [mg/dL] | Normalized (mg/dL) transthyretin tetramer concentration (tetrameric transthyretin [2]; Day 3 in 4.8 M urea, human plasma) [mg/dL] | Stabilization of tetrameric transthyretin by western blot (in words) (tetrameric transthyretin [3]) | Stabilization of tetrameric transthyretin in V30M patient plasma [4] | Dose dependence of tetramer stabilization (percent of tetramer remaining) (tetrameric transthyretin [1]; 4.6 or 9.2 μM, 3.2 M urea, 8-48 hours, Bayer ADVIA prealbumin kit, pooled plasma, FIG. 7) | Dose dependence of tetramer stabilization (percent of tetramer remaining) (tetrameric transthyretin [2]; 2.2, 4.3, 8.6 μM, 4.8 M urea, days 1, 2, 3, pooled plasma, FIG. 6)
1 | O=C(O)c1ccc2nc(-c3c(Cl)cccc3Cl)oc2c1 [Cmp. 1] | almost completely stabilized | 10.53 | 22.12 mg/dL | 12.26 | 23.45 | nearly completely stabilized | 23.5 | 21.9 | almost completely stabilized | – | – | –
2 | O=C(O)c1ccc2nc(-c3cc(Cl)cc(Cl)c3)oc2c1 [Cmp. 2] | significantly stabilized | – | 22.12 mg/dL and 23.72 mg/dL | – | 13.59 | – | – | – | – | stabilized in a dose-dependent manner | more effective than lower concentrations | more effective than lower concentrations
